Patent publication US20250339409A1, “USES OF PAN BET INHIBITORS” (VYNE THERAPEUTICS INC., priority 2021, published 2025)
Marks after values point to notes of the source that are not given here.

System: anti collagen antibodies induced arthritis (ACAIA)
Test: Anti collagen antibodies induced arthritis (ACAIA) in mice, intra-articular treatment: paw thickness, arthritis clinical score, body weight;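 also: mouse arthritis induced by IV anti-collagen mAb on day 0 plus IP LPS on day 4, with body weight, caliper paw thickness and 0-4 paw score tracked against a day 0 baseline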
[1] = 0.01 mg/kg IA (Group 5), Baseline
[2] = 0.01 mg/kg IA (Group 5), Day 10
[3] = 0.01 mg/kg IA (Group 5), Day 12
[4] = 0.1 mg/kg IA (Group 4), Baseline

In the case of `Cn1cc(-c2cccc(O)c2Oc2ccccc2)c2cc[nH]c2c1=O` [BETi1], the “Clinical score of treated leg (Avg.)” value [1] is reported as 0.00 points, the “Paw thickness Avg. Delta untreated -treated” value [1] is reported as −0.08 mm and the “Paw thickness of treated leg (Avg.)” value [1] is reported as 2.06 mm. For the same compound, the “Paw thickness of untreated leg (Avg.)” value [1] was 1.98 mm, the “Percent change of weight per day (Av)” value [1] was 100.00% and the “Δ clinical score untreated -treated, Avg. Delta” value [1] was 0.00 points. For the same compound, the “Clinical score of treated leg (Avg.)” value (0.01 mg/kg IA (Group 5), Day 3) was 0.00 points, the “Paw thickness Avg. Delta untreated -treated” value (0.01 mg/kg IA (Group 5), Day 3) was 0.02 mm and the “Paw thickness of treated leg (Avg.)” value (0.01 mg/kg IA (Group 5), Day 3) was 2.12 mm. The “Paw thickness of untreated leg (Avg.)” value (0.01 mg/kg IA (Group 5), Day 3) was 2.14 mm, the “Percent change of weight per day (Av)” value (0.01 mg/kg IA (Group 5), Day 3) was 99.39% and the “Δ clinical score untreated -treated, Avg. Delta” value (0.01 mg/kg IA (Group 5), Day 3) was 0.00 points. For the same compound, the “Clinical score of treated leg (Avg.)” value (0.01 mg/kg IA (Group 5), Day 4) was 0.00 points, the “Paw thickness Avg. Delta untreated -treated” value (0.01 mg/kg IA (Group 5), Day 4) was 0.00 mm and the “Paw thickness of treated leg (Avg.)” value (0.01 mg/kg IA (Group 5), Day 4) was 2.18 mm. For the same compound, the “Paw thickness of untreated leg (Avg.)” value (0.01 mg/kg IA (Group 5), Day 4) was 2.18 mm, the “Percent change of weight per day (Av)” value (0.01 mg/kg IA (Group 5), Day 4) was 96.62% and the “Δ clinical score untreated -treated, Avg. Delta” value (0.01 mg/kg IA (Group 5), Day 4) was 0.00 points. For the same compound, the “Clinical score of treated leg (Avg.)” value (0.01 mg/kg IA (Group 5), Day 5) was 0.00 points, the “Paw thickness Avg. Delta untreated -treated” value (0.01 mg/kg IA (Group 5), Day 5) was 0.00 mm and the “Paw thickness of treated leg (Avg.)” value (0.01 mg/kg IA (Group 5), Day 5) was 2.18 mm. The “Paw thickness of untreated leg (Avg.)” value (0.01 mg/kg IA (Group 5), Day 5) was 2.17 mm, the “Percent change of weight per day (Av)” value (0.01 mg/kg IA (Group 5), Day 5) was 89.80% and the “Δ clinical score untreated -treated, Avg. Delta” value (0.01 mg/kg IA (Group 5), Day 5) was 0.00 points. For the same compound, the “Clinical score of treated leg (Avg.)” value (0.01 mg/kg IA (Group 5), Day 6) was 0.71 points, the “Paw thickness Avg. Delta untreated -treated” value (0.01 mg/kg IA (Group 5), Day 6) was 0.05 mm and the “Paw thickness of treated leg (Avg.)” value (0.01 mg/kg IA (Group 5), Day 6) was 2.34 mm. For the same compound, the “Paw thickness of untreated leg (Avg.)” value (0.01 mg/kg IA (Group 5), Day 6) was 2.39 mm, the “Percent change of weight per day (Av)” value (0.01 mg/kg IA (Group 5), Day 6) was 88.03% and the “Δ clinical score untreated -treated, Avg. Delta” value (0.01 mg/kg IA (Group 5), Day 6) was 0.14 points. The “Clinical score of treated leg (Avg.)” value (0.01 mg/kg IA (Group 5), Day 7) was 1.86 points, the “Paw thickness Avg. Delta untreated -treated” value (0.01 mg/kg IA (Group 5), Day 7) was 0.02 mm and the “Paw thickness of treated leg (Avg.)” value (0.01 mg/kg IA (Group 5), Day 7) was 2.60 mm. For the same compound, the “Paw thickness of untreated leg (Avg.)” value (0.01 mg/kg IA (Group 5), Day 7) was 2.62 mm, the “Percent change of weight per day (Av)” value (0.01 mg/kg IA (Group 5), Day 7) was 91.87% and the “Δ clinical score untreated -treated, Avg. Delta” value (0.01 mg/kg IA (Group 5), Day 7) was −0.29 points. For the same compound, the “Clinical score of treated leg (Avg.)” value (0.01 mg/kg IA (Group 5), Day 8) was 1.86 points, the “Paw thickness Avg. Delta untreated -treated” value (0.01 mg/kg IA (Group 5), Day 8) was −0.01 mm and the “Paw thickness of treated leg (Avg.)” value (0.01 mg/kg IA (Group 5), Day 8) was 2.64 mm. For the same compound, the “Paw thickness of untreated leg (Avg.)” value (0.01 mg/kg IA (Group 5), Day 8) was 2.63 mm, the “Percent change of weight per day (Av)” value (0.01 mg/kg IA (Group 5), Day 8) was 89.85% and the “Δ clinical score untreated -treated, Avg. Delta” value (0.01 mg/kg IA (Group 5), Day 8) was −0.14 points. For the same compound, the “Clinical score of treated leg (Avg.)” value [2] was 2.14 points, the “Paw thickness Avg. Delta untreated -treated” value [2] was 0.05 mm and the “Paw thickness of treated leg (Avg.)” value [2] was 2.68 mm. For the same compound, the “Paw thickness of untreated leg (Avg.)” value [2] was 2.73 mm, the “Percent change of weight per day (Av)” value [2] was 89.71% and the “Δ clinical score untreated -treated, Avg. Delta” value [2] was 0.00 points. The “Clinical score of treated leg (Avg.)” value [3] was 2.43 points, the “Paw thickness Avg. Delta untreated -treated” value [3] was −0.20 mm and the “Paw thickness of treated leg (Avg.)” value [3] was 3.01 mm. The “Paw thickness of untreated leg (Avg.)” value [3] was 2.80 mm, the “Percent change of weight per day (Av)” value [3] was 92.75% and the “Δ clinical score untreated -treated, Avg. Delta” value [3] was −1.00 points. The “Clinical score of treated leg (Avg.)” value [4] was 0.00 points, the “Paw thickness Avg. Delta untreated -treated” value [4] was −0.04 mm and the “Paw thickness of treated leg (Avg.)” value [4] was 2.06 mm. For the same compound, the “Paw thickness of untreated leg (Avg.)” value [4] was 2.01 mm, the “Percent change of weight per day (Av)” value [4] was 100.00% and the “Δ clinical score untreated -treated, Avg. Delta” value [4] was 0.00 points. For the same compound, the “Clinical score of treated leg (Avg.)” value (0.1 mg/kg IA (Group 4), Day 3) was 0.00 points, the “Paw thickness Avg. Delta untreated -treated” value (0.1 mg/kg IA (Group 4), Day 3) was −0.05 mm and the “Paw thickness of treated leg (Avg.)” value (0.1 mg/kg IA (Group 4), Day 3) was 2.18 mm. For the same compound, the “Paw thickness of untreated leg (Avg.)” value (0.1 mg/kg IA (Group 4), Day 3) was 2.14 mm, the “Percent change of weight per day (Av)” value (0.1 mg/kg IA (Group 4), Day 3) was 101.00% and the “Δ clinical score untreated -treated, Avg. Delta” value (0.1 mg/kg IA (Group 4), Day 3) was 0.00 points. The “Clinical score of treated leg (Avg.)” value (0.1 mg/kg IA (Group 4), Day 4) was 0.00 points, the “Paw thickness Avg. Delta untreated -treated” value (0.1 mg/kg IA (Group 4), Day 4) was 0.04* mm and the “Paw thickness of treated leg (Avg.)” value (0.1 mg/kg IA (Group 4), Day 4) was 2.17 mm. For the same compound, the “Paw thickness of untreated leg (Avg.)” value (0.1 mg/kg IA (Group 4), Day 4) was 2.21 mm, the “Percent change of weight per day (Av)” value (0.1 mg/kg IA (Group 4), Day 4) was 99.30% and the “Δ clinical score untreated -treated, Avg. Delta” value (0.1 mg/kg IA (Group 4), Day 4) was 0.00 points. For the same compound, the “Clinical score of treated leg (Avg.)” value (0.1 mg/kg IA (Group 4), Day 5) was 0.00 points, the “Paw thickness Avg. Delta untreated -treated” value (0.1 mg/kg IA (Group 4), Day 5) was −0.02 mm and the “Paw thickness of treated leg (Avg.)” value (0.1 mg/kg IA (Group 4), Day 5) was 2.17 mm. For the same compound, the “Paw thickness of untreated leg (Avg.)” value (0.1 mg/kg IA (Group 4), Day 5) was 2.15 mm, the “Percent change of weight per day (Av)” value (0.1 mg/kg IA (Group 4), Day 5) was 91.11% and the “Δ clinical score untreated -treated, Avg. Delta” value (0.1 mg/kg IA (Group 4), Day 5) was 0.00 points. The “Clinical score of treated leg (Avg.)” value (0.1 mg/kg IA (Group 4), Day 6) was 1.57** points, the “Paw thickness Avg. Delta untreated -treated” value (0.1 mg/kg IA (Group 4), Day 6) was 0.06 mm and the “Paw thickness of treated leg (Avg.)” value (0.1 mg/kg IA (Group 4), Day 6) was 2.57* mm. For the same compound, the “Paw thickness of untreated leg (Avg.)” value (0.1 mg/kg IA (Group 4), Day 6) was 2.63 mm, the “Percent change of weight per day (Av)” value (0.1 mg/kg IA (Group 4), Day 6) was 88.63% and the “Δ clinical score untreated -treated, Avg. Delta” value (0.1 mg/kg IA (Group 4), Day 6) was −0.43 points. For the same compound, the “Clinical score of treated leg (Avg.)” value (0.1 mg/kg IA (Group 4), Day 7) was 2.00 points and the “Paw thickness Avg. Delta untreated -treated” value (0.1 mg/kg IA (Group 4), Day 7) was 0.05 mm.
